Assay results as given in patent US20240180160A1, “ANTIVIRAL POLYMER MATERIAL” (VALE BROTHERS LIMITED, priority 2021, published 2024).
Like-named read-outs stand apart in the source and are kept apart here.

Key:
[1] = system: CRFK cells; assay: Cytotoxicity control on the titration cells; conditions: 0.7% Formaldehyde, neutralised
Description: (§1) In addition, the formaldehyde cytotoxicity of neutralised formaldehyde is determined to measure assay sensitivity.
(§2) TCID50 was determined by the method of Karber (1Kärber, G.: Beitrag zur Kollektiven Behandlung Pharmakologischer Reihenversuche. Arch. Exp. Path. Pharmak. 162 (1931): 480-487.). Test virus suspension has at least a concentration which allows the determination of a 4 log10 reduction of the virus titre. The number of infectious virus particles is quantified by using the Median Tissue Culture Infectious Dose (TCID50) assay. The assay works by adding a serial dilution of the virus sample to cells in a 96 well plate format. The type of cell is specifically selected to show a cytopathic effect (CPE), i.e. morphological changes upon infection with the virus or cell death. After an incubation period, the cells are inspected for CPE or cell death and each well is classified as infected or not infected. Colorimetric or fluorometric readouts are also possible, which can increase assay sensitivity. The dilution, at which 50% of the wells show a CPE, is used to calculate the TCID50 of the virus sample. This calculation can generally be done by a variety of mathematical approaches, e.g., the Spearman-Karber method or the Reed-Muench method. Virus quantity is expressed as TCID50/ml.

[2] = system: Feline coronavirus ATCC VR-989; conditions: 0.7% Formaldehyde
Description: as §1, §2

**Q.** With `C=O` [Formaldehyde, formaldehyde] as the compound, how does the “Cytotoxicity TCID50/ml” value [1] read?
**A.** 3.16E+02 TCID50/ml

**Q.** And the “Cytotoxicity log (TCID50/ml)” value [1]?
**A.** 2.50 log

**Q.** And the “TCID50/ml (recovered virus)” value ([2]; exposure time 30 mins)?
**A.** 3.16E+02 TCID50/ml

**Q.** And the “log (TCID50/ml)” value ([2]; exposure time 30 mins)?
**A.** 2.50 log

**Q.** And the log difference ([2]; exposure time 30 mins)?
**A.** 3.17 log

**Q.** And the “TCID50/ml (recovered virus)” value ([2]; exposure time 60 mins)?
**A.** 3.16E+02 TCID50/ml

**Q.** What about the “log (TCID50/ml)” value ([2]; exposure time 60 mins) of the same compound?
**A.** 2.50 log

**Q.** What about the log difference ([2]; exposure time 60 mins) of the same compound?
**A.** 3.17 log
